Each molecule was assayed on A549 (assay: Cytotoxicity against human A549 cells after 2 days by resazurin reduction assay). Settings: A549, 48 h.
`CCC[C@H]1O[C@H](CC(=O)OC)[C@H](O)C2=C1C(=O)c1c(O)cccc1C2=O` was tested, and the IC50 was 0.35 µM.
In the case of `CCC[C@H]1O[C@H](CC(=O)O)C[C@@]2(O)C(=O)c3cccc(O)c3C(=O)[C@@]12O`, the IC50 is reported as > 80 µM.
With `CCC[C@H]1O[C@H](CC(=O)O)C[C@@H]2C(=O)c3cccc(O)c3C(=O)[C@]21O` the IC50 was > 80 µM.
`CCC[C@H]1O[C@H](CC(=O)O)CC2=C1C(=O)c1c(O)cccc1C2=O` [DEOXYFRENOLICIN] gave an IC50 of 1.07 µM.
For `CCC[C@H]1O[C@H](CC(=O)O)C[C@]2(SC[C@H](NC(C)=O)C(=O)O)C(=O)c3cccc(O)c3C(=O)[C@@]12O`, the IC50 was > 80 µM.
`CCC[C@H]1O[C@@H]2CC(=O)O[C@@H]2C2=C1C(=O)c1c(O)cccc1C2=O` [FRENOLICIN B] was tested, and the IC50 was 0.28 µM.
`CCC[C@H]1O[C@H](CC(=O)O)C[C@]23O[C@]12C(=O)c1c(O)cccc1C3=O` [FRENOLICIN] gave an IC50 of 5.77 µM.
For `CCC[C@H]1O[C@H](CC(=O)O)C[C@]2(O)C(=O)c3cccc(O)c3C(=O)[C@@]12O`, the IC50 was > 80 µM.
With `CCC[C@H]1O[C@H](CC(=O)O)C[C@]23O[C@]12C(=O)c1c(O)cccc1[C@@H]3O` the IC50 was > 80 µM.
